According to patent US8722849B2, “Polypeptides” (Novo Nordisk A/S, priority 2011, dated 2014):
Converted amounts (≈) assume the structure as drawn. Like-named read-outs stand apart in the source and are kept apart here. Starred links: 1 amine or outer side, 2 acyl side, 3 side chain; linkers in the order of their positions; H or OH if unused. Positions of bridges follow the written chain, without caps; N, C: chain ends. Residues, ends and D or L forms follow the SMILES beside them. *: point of attachment. C20 diacid = O=C(O)CCCCCCCCCCCCCCCCCCC(=O)*; γGlu = O=C(O)[C@H](CCC(=O)[*:2])N[*:1]

Assays:
[1] = target: T1, rat calcitonin (a) receptor (Rattus norvegicus, UniProt P32214); experiment: Assay (II)b functional cAMP FlashPlate assay, rat calcitonin receptor; type: cell-based; conditions: Table 11; read-out: CTa receptor rat EC50
T1 construct: expressed in transfected cells; host or cells: BHK tk'ts 13
T1 sequence (P32214 25-479 isoform P32214-2 limits assumed): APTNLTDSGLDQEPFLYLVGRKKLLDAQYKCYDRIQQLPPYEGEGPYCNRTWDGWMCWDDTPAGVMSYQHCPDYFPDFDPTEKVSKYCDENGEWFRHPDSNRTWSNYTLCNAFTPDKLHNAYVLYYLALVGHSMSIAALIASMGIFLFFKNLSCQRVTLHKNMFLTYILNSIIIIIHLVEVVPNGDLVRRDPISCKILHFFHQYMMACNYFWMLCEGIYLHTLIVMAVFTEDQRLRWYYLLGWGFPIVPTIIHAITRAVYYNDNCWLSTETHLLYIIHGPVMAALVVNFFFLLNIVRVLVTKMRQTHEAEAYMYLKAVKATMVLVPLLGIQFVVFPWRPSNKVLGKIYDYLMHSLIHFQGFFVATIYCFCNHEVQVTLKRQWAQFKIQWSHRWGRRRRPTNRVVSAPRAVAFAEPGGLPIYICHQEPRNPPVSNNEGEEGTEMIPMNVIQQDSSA
Method in brief: (§1)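 cAMP accumulation in transiently transfected BHK tk'ts 13 cells, 100.000 cells/well, expressing rat calcitonin(a) receptor or its RAMP3 co-expression form (amylin 3(a)): 30 min stimulation with IBMX, 24 hours post-transfection. Readout by competition of cellular versus radiolabelled cAMP in FlashPlates, scintillation counted after 3 h.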

[2] = Assay (IV) determination of solubility; type: physicochemical
Method in brief: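 Stock ~500 nmol/ml in water; 1:1 with 100 mM buffer, pH 3.0–8.0 (glycylglycine ≤5.0, bistrispropane ≥6.0); 18 h RT; spin; HPLC quantitation of soluble polypeptide.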

[3] = target: T2, human amylin receptor (amylin 3(a) receptor: human calcitonin receptor + RAMP-3) (Homo sapiens, UniProt O60896+P30988); experiment: Assay (II)a functional CRE-luciferase assay, human amylin receptor; type: cell-based; conditions: Table 2; BHK amylin 3(a)-receptor/CRE-luc cells
T2 construct: expressed in transfected cells; host or cells: BHK570
T2 sequence (P30988 25-474): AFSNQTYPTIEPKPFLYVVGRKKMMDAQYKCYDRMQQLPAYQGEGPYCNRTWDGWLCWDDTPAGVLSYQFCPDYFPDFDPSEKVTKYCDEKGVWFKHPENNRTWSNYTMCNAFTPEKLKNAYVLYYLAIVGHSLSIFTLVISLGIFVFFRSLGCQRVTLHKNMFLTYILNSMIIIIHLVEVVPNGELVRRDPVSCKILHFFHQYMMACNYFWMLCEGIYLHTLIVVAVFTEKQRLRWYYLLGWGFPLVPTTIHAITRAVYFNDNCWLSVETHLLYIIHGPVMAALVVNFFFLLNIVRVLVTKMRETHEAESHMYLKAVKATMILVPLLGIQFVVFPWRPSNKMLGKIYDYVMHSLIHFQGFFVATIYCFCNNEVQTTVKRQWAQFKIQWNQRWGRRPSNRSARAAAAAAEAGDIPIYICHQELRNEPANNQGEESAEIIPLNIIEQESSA
T2 sequence (O60896 24-148 partner): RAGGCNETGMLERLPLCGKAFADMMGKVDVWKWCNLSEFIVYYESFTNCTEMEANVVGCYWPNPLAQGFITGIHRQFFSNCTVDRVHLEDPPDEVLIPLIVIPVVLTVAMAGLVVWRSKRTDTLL

[4] = target: T3, human calcitonin receptor (Homo sapiens, UniProt P30988); experiment: Assay (II)a functional CRE-luciferase assay, human calcitonin receptor; type: cell-based; conditions: Table 7; human calcitonin (CTa) receptor
T3 construct: expressed in transfected cells; host or cells: BHK570
T3 sequence (P30988 25-474): T2 sequence (P30988 25-474)

[5] = target: T4, rat amylin 3(a) receptor (rat calcitonin(a) receptor + rat RAMP3) (Rattus norvegicus, UniProt P32214+Q9JJ73); experiment: Assay (II)b functional cAMP FlashPlate assay, rat amylin receptor; type: cell-based; conditions: Table 11
T4 construct: expressed in transfected cells; host or cells: BHK tk'ts 13
T4 sequence (P32214 25-479 isoform P32214-2 limits assumed): T1 sequence (P32214 25-479 isoform P32214-2 limits assumed)
T4 sequence (Q9JJ73 23-147 partner): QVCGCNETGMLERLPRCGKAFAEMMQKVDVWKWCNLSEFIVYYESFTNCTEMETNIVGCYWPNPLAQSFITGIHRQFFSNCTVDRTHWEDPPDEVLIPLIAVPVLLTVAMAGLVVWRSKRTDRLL
Method in brief: as §1

[6] = bistrispropane buffer, pH 6, pH 6.0, read-out: Solubility pH 6.0
[7] = bistrispropane buffer, pH 6.5, pH 6.5, read-out: Solubility pH 6.5
[8] = bistrispropane buffer, pH 7, pH 7.0, read-out: Solubility pH 7.0
[9] = bistrispropane buffer, pH 7.5, pH 7.5, read-out: Solubility pH 7.5
[10] = bistrispropane buffer, pH 8, pH 8.0, read-out: Solubility pH 8.0
[11] = glycylglycine buffer, pH 3, pH 3.0, read-out: Solubility pH 3.0
[12] = glycylglycine buffer, pH 4, pH 4.0, 18 hours at room temperature, Table 2, read-out: Solubility pH 4.0
[13] = glycylglycine buffer, pH 4, pH 4.0, read-out: Solubility pH 4.0
[14] = glycylglycine buffer, pH 5, pH 5.0, read-out: Solubility pH 5.0
[15] = bistrispropane buffer, pH 7, pH 7.0, 18 hours at room temperature, Table 3, read-out: Solubility pH 7.0
[16] = bistrispropane buffer, pH 7, pH 7.0, Table 8, read-out: Solubility pH 7.0
[17] = bistrispropane buffer, pH 7, pH 7.0, Table 9, read-out: Solubility pH 7.0
[18] = bistrispropane buffer, pH 7.5, pH 7.5, Table 9, read-out: Solubility pH 7.5

Row | EC50 [1] [nM] | solubility at 18 h [2, 6] [µM] | solubility at 18 h [2, 7] [µM] | solubility at 18 h [2, 8] [µM] | solubility at 18 h [2, 9] [µM] | solubility at 18 h [2, 10] [µM] | solubility at 18 h [2, 11] [µM] | solubility at 18 h [2, 12] [µM] | solubility at 18 h [2, 13] [µM] | solubility at 18 h [2, 14] [µM] | EC50 [3] [nM] | EC50 [4] [nM] | EC50 [5] [nM] | solubility at 18 h [2, 15] [µM] | solubility at 18 h [2, 16] [µM] | solubility at 18 h [2, 17] [µM] | solubility at 18 h [2, 18] [µM] | Compound
1 | 1.04 | 45 (≈ 202 µg/mL) | 1 (≈ 4.49 µg/mL) | 4 (≈ 18 µg/mL) | 104 (≈ 467 µg/mL) | > 200 | > 200 | > 200 | > 200 | > 200 | 0.121 | 0.0855 | 0.224 |  |  |  |  | CC[C@H](C)[C@H](NC(=O)[C@@H]1CCCN1C(=O)CNC(=O)[C@H](Cc1ccccc1)NC(=O)[C@H](CC(N)=O)NC(=O)[C@H](CC(N)=O)NC(=O)[C@H](CO)NC(=O)[C@H](CO)NC(=O)[C@H](Cc1c[nH]cn1)NC(=O)[C@H](Cc1c[nH]cn1)NC(=O)[C@H](CC(C)C)NC(=O)[C@H](Cc1ccccc1)NC(=O)[C@H](CCC(=O)O)NC(=O)[C@H](C)NC(=O)[C@H](CC(C)C)NC(=O)[C@H](CCCNC(=N)N)NC(=O)[C@H](CCC(N)=O)NC(=O)[C@@H](NC(=O)[C@H](C)NC(=O)[C@@H]1CSSC[C@H](NC(=O)[C@H](Cc2c[nH]cn2)NC(=O)CC[C@H](NC(=O)CCCCCCCCCCCCCCCCCCC(=O)O)C(=O)O)C(=O)N[C@@H](CC(N)=O)C(=O)N[C@@H]([C@@H](C)O)C(=O)N[C@@H](C)C(=O)N[C@@H]([C@@H](C)O)C(=O)N1)[C@@H](C)O)C(=O)N[C@@H](CC(C)C)C(=O)N1CCC[C@H]1C(=O)N1CCC[C@H]1C(=O)N[C@H](C(=O)N[C@@H](CC(N)=O)C(=O)N[C@H](C(=O)NCC(=O)N[C@@H](CO)C(=O)N[C@@H](Cc1c[nH]cn1)C(=O)N[C@H](C(=O)N[C@@H](Cc1ccc(O)cc1)C(N)=O)[C@@H](C)O)C(C)C)[C@@H](C)O [Example 76, N-alpha-[(S)-4-Carboxy-4-(19-carboxynonadecanoylamino)butyryl]-[His1,Glu14,His17,His35]-pramlintide] ({C20 diacid-γGlu}-HCNTATCATQRLAEFLHHSSNNFGPILPPTNVGSHTY-NH2; disulfide 2-7 (inferred); C-terminus assumed)
2 | 0.37 | > 200 | > 200 | > 200 | > 200 | > 200 | > 200 | > 200 | > 200 | > 200 | 0.036 | 0.055 | 0.3 | > 200 | > 200 | > 200 | > 200 | CC[C@H](C)[C@H](NC(=O)[C@@H]1CCCN1C(=O)CNC(=O)[C@H](Cc1ccccc1)NC(=O)[C@H](CC(N)=O)NC(=O)[C@H](CC(N)=O)NC(=O)[C@H](CO)NC(=O)[C@H](CO)NC(=O)[C@H](Cc1c[nH]cn1)NC(=O)[C@H](CCCNC(=N)N)NC(=O)[C@H](CC(C)C)NC(=O)[C@H](Cc1ccccc1)NC(=O)[C@H](CCC(=O)O)NC(=O)[C@H](C)NC(=O)[C@H](CC(C)C)NC(=O)[C@H](CCCNC(=N)N)NC(=O)[C@H](CCC(N)=O)NC(=O)[C@@H](NC(=O)[C@H](C)NC(=O)[C@@H]1CSSC[C@H](NC(=O)CNC(=O)CC[C@H](NC(=O)CCCCCCCCCCCCCCCCCCC(=O)O)C(=O)O)C(=O)N[C@@H](CC(N)=O)C(=O)N[C@@H]([C@@H](C)O)C(=O)N[C@@H](C)C(=O)N[C@@H]([C@@H](C)O)C(=O)N1)[C@@H](C)O)C(=O)N[C@@H](CC(C)C)C(=O)N1CCC[C@H]1C(=O)N1CCC[C@H]1C(=O)N[C@H](C(=O)N[C@@H](CC(N)=O)C(=O)N[C@H](C(=O)NCC(=O)N[C@@H](CO)C(=O)N[C@@H](CC(N)=O)C(=O)N[C@H](C(=O)N1CCC[C@H]1C(N)=O)[C@@H](C)O)C(C)C)[C@@H](C)O [Example 88, N-alpha-[(S)-4-Carboxy-4-(19-carboxynonadecanoylamino)butyryl]-[Gly1,Glu14,Arg17,Pro37]-pramlintide] ({C20 diacid-γGlu}-GCNTATCATQRLAEFLRHSSNNFGPILPPTNVGSNTP-NH2; disulfide 2-7 (inferred); C-terminus assumed)
3 | 0.114 | > 200 | > 200 | > 200 | > 200 | > 200 | > 200 | > 200 | > 200 | > 200 | 0.0255 | 0.0395 | 0.151 | > 200 | > 200 | > 200 | > 200 | CC[C@H](C)[C@H](NC(=O)[C@@H]1CCCN1C(=O)CNC(=O)[C@H](Cc1ccccc1)NC(=O)[C@H](CC(N)=O)NC(=O)[C@H](CC(N)=O)NC(=O)[C@H](CO)NC(=O)[C@H](CO)NC(=O)[C@H](Cc1c[nH]cn1)NC(=O)[C@H](CCCNC(=N)N)NC(=O)[C@H](CC(C)C)NC(=O)[C@H](Cc1ccccc1)NC(=O)[C@H](CCC(=O)O)NC(=O)[C@H](C)NC(=O)[C@H](CC(C)C)NC(=O)[C@H](CCCNC(=N)N)NC(=O)[C@H](CCC(N)=O)NC(=O)[C@@H](NC(=O)[C@H](C)NC(=O)[C@@H]1CSSC[C@H](NC(=O)[C@H](Cc2c[nH]cn2)NC(=O)CNC(=O)CC[C@H](NC(=O)CCCCCCCCCCCCCCCCCCC(=O)O)C(=O)O)C(=O)N[C@@H](CC(N)=O)C(=O)N[C@@H]([C@@H](C)O)C(=O)N[C@@H](C)C(=O)N[C@@H]([C@@H](C)O)C(=O)N1)[C@@H](C)O)C(=O)N[C@@H](CC(C)C)C(=O)N1CCC[C@H]1C(=O)N1CCC[C@H]1C(=O)N[C@H](C(=O)N[C@@H](CC(N)=O)C(=O)N[C@H](C(=O)NCC(=O)N[C@@H](CO)C(=O)N[C@@H](CC(N)=O)C(=O)N[C@H](C(=O)N1CCC[C@H]1C(N)=O)[C@@H](C)O)C(C)C)[C@@H](C)O [Example 89, N-alpha-[(S)-4-Carboxy-4-(19-carboxynonadecanoylamino)butyryl]-Gly-[His1,Glu14,Arg17,Pro37]-pramlintide] ({C20 diacid-γGlu}-GHCNTATCATQRLAEFLRHSSNNFGPILPPTNVGSNTP-NH2; disulfide 3-8 (inferred))
